Results taken from patent publication US20140322758A1, “ADDITION OF IRON TO IMPROVE CELL CULTURE” (Pfizer Inc., priority 2011, published 2014).

Legend:
[1] = test system: cell line producing a monoclonal antibody (clone 2.8); assay: Fed batch culture of clone 2.8 in shake flasks, Fe addition on day 0 or day 9; format: cell-based; conditions: 600 μM added on day 0
Description: This experiment is designed to test whether a high concentration of Fe added at day 0 would have an advantageous effect. […] Seed density was 1.5×10^6 cells/mL. The cells were cultured for 14 days. The basal medium was a chemically defined basal medium supplemented with amino acids including 4 mM glutamine. Feed medium is a chemically defined concentrated feed medium. Fe-citrate or FeSO4 was added on day 0 or day 9 to effect a concentration of 600 μM of iron in the cell culture medium. Cells were subjected to cell density, viability, titer and Qp analysis at various time points throughout the cell culture process as described in previous examples.

[2] = test system: CHO cells expressing an nanobody; assay: Fed batch culture of CHO cells expressing a nanobody in shake flasks, FeSO4 addition on day 6; format: cell-based, Chinese hamster; conditions: 1 mM iron added on day 6
Description: CHO cells expressing an nanobody were grown by fed batch culture in shake flasks. Cells were initially cultured in 7% CO2 incubator at 37° C. for 0-4 days and shifted to 31° C. after day 4. FeSO4 was added on day 6 to effect a concentration of 1 mM of iron in the cell culture medium. Cells were subjected to cell density, viability, titer, lactate level and Qp analysis at various time points throughout the cell culture process as described in Example 1.

With ferric citrate [Fe-citrate] the cell growth ([1]; FIG. 11) was “increased cell growth at early stage”, the “viability on day 14” value ([1]; control 74-80%, FIG. 12) was “about 75%” and the Qp ([1]; throughout the culture, FIG. 13) was “lower than all other conditions”.

`O=S(=O)([O-])[O-].[Fe+2]` [FeSO4] gave a Qp ([2]; control 10 μg/e6/day, FIG. 9) of 20 μg/e6/day, a lactate level ([2]; control increased to 2.24 g/L on day 15, FIG. 10) of ~0 g/L and a titer ([2]; read on day 15, control 1.5 g/L, FIG. 8) of 3.2 g/L. The viability ([2]; read on day 15, control 70%, FIG. 7) was 96%.
